Laboratory results reported in patent US12358859B2, “Series of compounds for treatment of skin diseases and other conditions” (Unigen, Inc., priority 2018, dated 2025).
≈ marks a conversion by molar mass, not a printed value. Like-named read-outs stand apart in the source and are kept apart here.

Columns and labels:
[1] = test system: Propionibacterium acnes (ATCC11827); test: P-acne MIC/MBC test; format: cell-based; details: for MIC: lowest level that inhibits growth, turbidity, 1 day
Procedure: The anti-microbial activity of the tested compounds were evaluated using published methods (Modugno e. al. (1994) Antimicrobial agents and Chemotherapy 38: 2362-2368; […] et. al. (1973) Antimicrobial agents and Chemotherapy 3: 40-48. Propionibacterium acnes (ATCC11827) was cultured for 20 hours at 37° C. in Reinforced Clostridal medium. The test article and positive control were dissolved in 1% DMSO with an incubation volume of 1 mL. The time of assessment was 1 day. Measurement of turbidity was used as the method of quantification. The compounds were tested in duplicate at concentrations of 250 ug/mL, 125 ug/mL, 62 ug/mL, 31 ug/mL, 16 ug/mL, 8 ug/mL, 4 ug/mL, 2 ug/mL relative to positive control ampicillin at 0.1 ug/mL.

[2] = biological target: T1, COX-2 (Homo sapiens, UniProt P35354); test: COX-2 enzymatic inhibition assay; format: biochemical; details: for IC50: read-out: Anti-inflammatory (IC50) COX-2
T1 construct: purchased Cayman Chemical 701050
T1 sequence (P35354 18-604): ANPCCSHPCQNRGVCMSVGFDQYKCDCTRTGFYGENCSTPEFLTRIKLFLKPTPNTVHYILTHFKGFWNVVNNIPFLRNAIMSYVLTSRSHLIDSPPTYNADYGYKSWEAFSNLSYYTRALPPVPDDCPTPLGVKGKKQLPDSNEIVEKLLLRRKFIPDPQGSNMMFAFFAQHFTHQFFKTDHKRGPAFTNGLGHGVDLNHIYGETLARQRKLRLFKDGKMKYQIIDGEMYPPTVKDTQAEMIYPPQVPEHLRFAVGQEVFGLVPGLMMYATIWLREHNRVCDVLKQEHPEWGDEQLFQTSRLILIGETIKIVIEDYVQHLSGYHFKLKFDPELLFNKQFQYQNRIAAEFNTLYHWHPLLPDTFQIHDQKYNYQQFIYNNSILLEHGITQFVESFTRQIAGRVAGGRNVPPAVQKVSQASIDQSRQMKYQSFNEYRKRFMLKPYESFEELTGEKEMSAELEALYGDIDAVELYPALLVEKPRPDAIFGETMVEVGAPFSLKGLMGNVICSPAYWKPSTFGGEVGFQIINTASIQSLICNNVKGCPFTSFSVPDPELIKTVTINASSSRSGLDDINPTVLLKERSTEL
Procedure: In order to screen for compounds that inhibited COX-1 and Cox-2 activity, enzymatic inhibition assay kits were purchased from Cayman Chemical (cat #701050). Briefly, the compound being examined was treated against a fixed amount of COX-1 and COX-2 enzymes. A cleavable, peroxide chromophore was included in the assay to visualize the peroxidase activity of each enzyme in presence of arachidonic acid as […]. Typically, assays were performed in 96-well format. Each inhibitor, taken from a 1 M stock solution in 100% DMSO, was tested in duplicate at room temperature using the following range of concentrations: 1.9, 3.9, 7.8, 15.6, 31.2, 62.5, 125, 250, 500, and 1000 μM. To each well, 150 μL of Assay Buffer was added along with 10 μL of Hemin, 10 μL of inhibitor diluted in DMSO and 10 μL of either COX-1 or COX-2 enzyme. The compounds were incubated for 5 minutes at room temperature, followed by the addition of 20 μL of Colormietric Substrate solution and 20 μL of arachidonic acid solution to initiate the reaction. The plate was mixed and incubated for 2 minutes before reading the absorbance at 590 nm. The inhibitor concentration vs. % of inhibition was plotted and the IC50 determined.

[3] = biological target: 5-lipoxygenase from potato; test: Lipoxygenase Inhibition Assay; format: biochemical; details: read-out: Anti-inflammatory (IC50) 5-LOX
Procedure: One of the most important pathway involved in the inflammatory response is produced by non-heme, ion-containing lipoxygenases (5-LOX, 12-LOX and 15-LOX) which catalyze the oxidation of fatty acids such as AA to produce the hydoperoxides 5-, 12- and 15-HEPTE, which are then converted to leukotrienes. A Lipoxygenase Inhibition Assay was carried out using commercial kit from Cayman Chemical (cat #760700, 5-lipoxygenase from potato, cat #60400). The test article and positive control were dissolved in 1% DMSO. 90 μL of diluted potato lipoxygenase enzyme and 10 μL inhibitor were added to a flat-bottom clear 96-well microplate. The plate was pre-incubated for five minutes at room temperature. The reaction was initiated by the addition of 10 μL linoleic acid substrate. The plate was then placed on a shaker for 10 minutes at room temperature. 100 μL Chromogen solution was added to each well and the plate was shaken again for five minutes. The absorbance was read at 492 nm using a TECAN Genios plate reader. The inhibitor concentration vs. % of inhibition was plotted and the IC50 determined.

[4] = ORAC 5.0 antioxidant capacity; details: Trolox reference standard
Excerpt: Table 5 lists representative novel 1,6-dienes analogs of Formula I-III which are useful as anti-oxidant. ORAC 5.0 consists of five types of ORAC assays that evaluate the antioxidant capacity of material against five primary reactive oxygen species (ROSs, commonly called “oxygen radicals”) found in humans: peroxyl radical, hydroxyl radical, superoxide anion, singlet oxygen, and […]. Trolox is used as reference standard, and the results are expressed as μ mole Trolex equivalency per gram (or milliliter) of a tested material.

[5] = Cutibacterium acnes, ATCC11827, 24 h, read-out: MIC
[6] = Cutibacterium acnes, ATCC11827, lowest concentration required to kill the bacterium, read-out: MBC

Row | SMILES | MIC [1, 5] [µg/mL] | MBC [1, 6] [µg/mL] | MBC ([1]; lowest concentration required to kill the bacterium) [ppm] | MIC [1] [ppm] | Anti-inflammatory (IC50) COX-2 [2] | IC50 [3] [µM] | ORAC [4] [μ mole TE/gram] | IC50 [2] [µM]
1 | CC(C)=CCCC(C)=Cc1ccc(O)cc1 (mixture of isomers) [Compound 1, (E/Z)-4-(2,6-dimethylhepta-1,5-dienyl)phenol] | < 3.9 | < 3.9 | <3.9 | <3.9 | Not active | 90 |  | 
2 | CC(C)=CCC/C(C)=C/c1cc(O)cc(O)c1 [Compound 4, (E/Z)-5-(2,6-dimethylhepta-1,5-dienyl)benzene-1,3-diol] | < 3.9 | < 3.9 |  |  |  | 317 | 22580 | 245
3 | CC(C)=CCCC(C)/C=C/c1ccc(O)cc1 (stereo not drawn) [Compound 5, (E)-4-(3,7-dimethylocta-1,6-dienyl)phenol] | < 3.9 |  |  |  |  | 50 | 37643 | 72
4 | CC(C)=CCCC(C)/C=C/c1ccc(O)cc1O (stereo not drawn) [Compound 6, (E)-4-(3,7-dimethylocta-1,6-dienyl) benzene-1,3-diol] | 3.9 (≈ 15.8 µM) | 3.9 to 31.3 (≈ 15.8 to 127 µM) |  |  |  | 307 | 45869 | 164
5 | CC(C)=CCCC(C)/C=C/c1cc(O)cc(O)c1 (stereo not drawn) [Compound 7, (E)-5-(3,7-dimethylocta-1,6-dienyl) benzene-1,3-diol] | 7.8 (≈ 31.7 µM) | 7.8 to 31.3 (≈ 31.7 to 127 µM) |  |  |  | 143 | 18196 | 135
6 | CC(C)=CCCC(C)C/C=C\c1cc(O)cc(O)c1 (stereo not drawn) [Compound 15, (Z)-5-(4,8-dimethylnona-1,7-dienyl) benzene-1,3-diol] | < 3.9 | < 3.9 |  |  | No Inhibition | 90 | 11951 | 
